Assay results: patent US20180256495A1 (MEDRx Co., Ltd., priority 2008, published 2018)
Like-named read-outs stand apart in the source and are kept apart here.

Tests used:
[1] = cited from earlier work; for logP of organic acid (calc.) / Log P of organic acid (calc.) / logP (Log P of organic acid, Calculated): organic acid itself; for logP (calc.): basic drug itself, value published in PubMed; for log P: lipid solubility of the named drug or organic acid itself
[2] = State of the liquid preparation (precipitation, homogeneity, solubility or dispersion of the salt)
[3] = Evaluation test of transdermal absorbability (skin penetrability) with a Franz diffusion cell; format: in vitro ADME; conditions: free basic drug, liquid preparation 2 w/w %, rat skin, 32° C.
[4] = stated in brackets in the synthesis examples; cited from earlier work
[5] = wrapped cell, full remark: tendency of salt to be divided into two layers

Structure (SMILES) | Log P of organic acid (calc.) ([1]; value from PubMed) | logP (Log P of organic acid, Calculated) ([1]; value from PubMed) | logP of organic acid (calc.) ([1]; value from PubMed) | Penetrated Amount (amount of skin-penetrated drug during 3 hours) [3] [μg/cm^2] | further results
CC(=O)NCC(=O)O [N-acetylglycine] | −3.1 |  |  |  | logP of organic acid (calc.) [1]: −3.1
COCC(=O)O [methoxyacetic acid] | −0.6 | −0.6 | −0.6 |  | logP of organic acid (calc.) [1]: −0.6; Remarks (state of the liquid preparation) ([2]; morphine 2 w/w % liquid preparation with the row's acid, wrapped cell 'small amount of' + 'precipitation' = small amount of white precipitation remained): homogeneous solution
CC(=O)Oc1ccccc1C(=O)O [acetylsalicylic acid] |  | 1.4 |  |  | 
CCC(=O)O [propionic acid] | 0.2 |  | 0.2 |  | 
CC(C)=CCN1CCC2(C)c3cc(O)ccc3CC1C2C (stereo not drawn) [pentazocine, reference compound] |  |  |  | 40 | logP (calc.) [1]: 3.7; log P [1]: 3.7; pKa [4]: 8.0
CC(O)CC(=O)O (stereo not drawn) [3-hydroxybutyric acid] |  | −0.5 |  |  | 
CN(C)CCCN1c2ccccc2CCc2ccccc21 [imipramine] |  |  |  | 10 | 
CC(C)CCCCCCCCCCCCCCC(=O)O [isostearic acid] | 7 | 7 | 7 |  | logP of organic acid (calc.) [1]: 7
O=C(O)c1ccc(O)cc1 [p-hydroxybenzoic acid] |  | 1.2 |  |  | 
O=C(O)c1ccccc1O [salicylic acid] | 2.4 | 2.4 | 2.4 |  | 
COc1cccc(C2(O)CCCCC2CN(C)C)c1 (stereo not drawn) [tramadol, reference compound] |  |  |  | 122 | logP (calc.) [1]: 2.4; log P [1]: 2.4
Cc1ccc(C(=O)C(C)CN2CCCCC2)cc1 (stereo not drawn) [tolperisone, reference compound] |  |  |  | 26 | logP (calc.) [1]: 3.1
CN(C)CCC=C1c2ccccc2CCc2ccccc21 [amitriptyline, reference compound] |  |  |  | 7 | logP (calc.) [1]: 4.9; log P [1]: 4.9
CCc1ccc(C(=O)C(C)CN2CCCCC2)cc1 (stereo not drawn) [eperisone, reference compound] |  |  |  | 14 | logP (calc.) [1]: 3.6
CC(=O)CCC(=O)O [levulinic acid] | −0.4 | −0.4 | −0.4 |  | logP of organic acid (calc.) [1]: −0.4
CCCCCCCC(=O)O [octanoic acid] | 3 |  | 3 |  | logP of organic acid (calc.) [1]: 3
CC(O)C(=O)O.CCN(CC)CC(=O)Nc1c(C)cccc1C [Lactic acid salt of lidocaine, lactic acid salt of lidocaine] |  |  |  |  | Remarks, Test Example 7: 2% liquid preparation (solvent system) ([2]; wrapped cell, full remark: homogeneously dispersed solution): homogeneously; Remarks, Example 13: 20% viscous liquid preparation (liquid paraffin) [2, 5]: tendency of salt to; Remarks, Example 14: 20% viscous liquid preparation (solvent + liquid paraffin) [2, 5]: tendency of salt to
CCCCC(CC)C(=O)O (stereo not drawn) [2-ethylhexanoic acid] |  | 2.7 |  |  | 
